We go through seven compounds from publication PMC5845165, “Pharmacokinetic Study of 7 Compounds Following Oral Administration of Fructus Aurantii to Depressive Rats” (Frontiers in Pharmacology, 2018).

What is called AUC is the area under the concentration-time curve, a measure of exposure. A lower AUC goes with less exposure. As a reminder, the AUC(0-t) is the area under the concentration-time curve up to a stated or last time point. Low readings indicate low exposure, high ones high exposure. As a reminder, the Cmax is the maximum level reached in the sampled fluid or tissue. Usually Tmax stands for the time from dosing to the highest level. Broadly, the half-life is how long it takes for the measured level to halve. Read a high half-life as slow decline.

The nature of data set [1]: Pharmacokinetic study in plasma of acute depressive rats after oral ZQ extract (LC-MS/MS). In kind it is in vivo, Sprague–Dawley rats. As to conditions: oral ZQ extract 20 g/kg; for AUC / AUC(0-t) / Cmax / Tmax / half-life: Sprague-Dawley, rat; for AUC: AUC0-∞; for half-life: male, po, 20 g/kg. The method, then:
(§1) Sample (200 μL) and 10 μL of mixed IS solution containing sulfamethoxazole (754 ng/mL) and honokiol (274 ng/mL) was added to Eppendorf tubes and extracted with 1 mL acetonitrile. The mixed solution was vortexed for 3 min and centrifuged at 10000 rpm for 10 min at 4°C to acquire the supernatant. The supernatant (800 μL) was moved to a clean Eppendorf tube, and then desiccated under a flow of nitrogen at 40°C. Finally, the residue was redissolved in 100 μL acetonitrile/water (90:10, v/v) with vortex-mixing for 3 min and centrifuged at 13000 rpm for 10 min. A 10 μL aliquot of the sample was injected into the LC/MS/MS system for analysis.
All of the rats were subjected to FST for 24 h before oral administration of the ZQ extract (20 g/kg). Plasma samples (about 0.5 mL) were gathered in a heparinized 1.5 mL Eppendorf tube from the venous plexus of the eye socket at 0.083, 0.25, 0.5, 0.75, 1.0, 1.5, 2.0, 3.0, 4.0, 6.0, 8.0, 12.0, and 24.0 h under anesthesia. Each sample was immediately centrifuged at 10000 rpm for 15 min to acquire the plasma. At last, the plasma was immediately placed at -80°C until measure.
All data were expressed as the mean ± SD. The plasma concentration of the 7 compounds during the experiment was calculated according to the daily calibration curve. The pharmacokinetic parameters, including Cmax (the peak drug plasma concentration), Tmax (the time to Cmax), AUC0-t (the area under the plasma concentration-time curve from 0 to time), AUC0-∞ (the area under the plasma concentration-time curve from 0 to time infinity), and t1/2 (the elimination half-life) were calculated by performing a non-compartment model using WinNonlin Professional Edition Version 2.1 (Pharsight Corporation, Sunnyvale, CA, United States). The immobile time in the FST test was evaluated by one-way ANOVA. Statistical significance was denoted at p < 0.05. Statistical analysis was operated by GraphPad Prism 5 software.

Data set [2] can be described thus: Stability of the analytes in rat plasma (QC samples). The class given is in vitro ADME. As to conditions: deviation from nominal conc. As for the experimental part: The stabilities of the 7 analytes in rat plasma was evaluated by assaying six replicates of QC samples at low, middle, and high concentrations in practical experimental conditions: samples post-preparation stored in auto-sampler condition for 12 h, and storage at -80°C for 1 month. The freeze- thaw stability was determined after the experience of three freeze-thaw cycles (from -80°C to room temperature). Samples were identified as stable if the accuracy bias was within 15.0% of the nominal concentration.

The nature of data set [3]: Qualitative LC/MS-MS identification in hippocampus and cortex after oral ZQ extract. In kind it is in vivo, Sprague–Dawley rats. The following applies: acute depressive rats, 0.5 h after oral ZQ extract 20 g/kg. As for the experimental part:
To identify the main active compounds of ZQ in target tissue, six rats subjected to FST were sacrificed under anesthesia 0.5 h after oral administration of ZQ extract (20 g/kg), and then the hippocampal and cortex tissue was separated rapidly from the brain on an ice tray and stored at -80°C. All tissues (∼50.0 mg) were homogenized with 1.5 mL of ice-cold 0.9% saline.
as §1

On the set-up of data set [4]: method as in Tong et al., 2012. The following applies: oral ZQ 3.2 g/kg, ref Tong et al., 2012; cited from earlier work.
The mark [5] stands for this setting: plasma, male SD rats subjected to FST, mean ± SD, n = 6.

For `COc1ccc2ccc(=O)oc2c1CC(O)C(C)(C)O` (centres unmarked) [Meranzin hydrate], in data set [1] (setting [5]), the area under the curve (AUC) is 1710 ± 350 ng·h/mL, the area under the curve AUC(0-t) is 1480 ± 259 ng·h/mL, the peak level (Cmax) was 222 ± 53.9 ng/mL and the Tmax worked out at 1.25 ± 0.42 h. Besides, in data set [1] (setting [5]), the half-life is greater than 7.3 h and the T1/2 came out at 7.31 ± 1.51 h. Moreover, in data set [1] (depressive rats), the “AUC0-∞ relative to other flavonoids” value is “at least fivefold higher”. Besides, in data set [2] (high QC level), the “RE, -80°C for 1 month” value is listed as 9.41%; the “RE, Room temperature for 12 h” value came to 7.34%; the “RE, Three freeze-thaw cycles” value is 3.48%. For the same compound, in data set [2] (low QC level), the “RE, -80°C for 1 month” value was 6.97%; the “RE, Room temperature for 12 h” value is on record as 11.26%; the “RE, Three freeze-thaw cycles” value is recorded as 11.95%. Besides, in data set [2] (middle QC level), the “RE, -80°C for 1 month” value was 7.29%; the “RE, Room temperature for 12 h” value is 2.66%; the “RE, Three freeze-thaw cycles” value was -13.99%. Besides, in data set [3], the “absorption into hippocampus and cortex (qualitative)” value was “absorbed into the hippocampus and cortex”.
Regarding `O=C1C[C@@H](c2ccc(O)cc2)Oc2cc(O)cc(O)c21` [Naringenin, naringenin], the “AUC0-∞ in healthy rats compared with this study” value in data set [4] was “higher than the data obtained in our experiment”. In addition, in data set [1] (setting [5]), the area under the curve (AUC) came to 226 ± 64.9 ng·h/mL, the AUC(0-t) was 188 ± 38.9 ng·h/mL, the Cmax turned out to be 78.1 ± 22.2 ng/mL and the Tmax was 0.42 ± 0.13 h. The compound further had a half-life in data set [1] (setting [5]) of 4.37 ± 1.19 h. In addition, in data set [2] (high QC level), the “RE, -80°C for 1 month” value was determined as 3.14%; the “RE, Room temperature for 12 h” value is reported as -2.56%; the “RE, Three freeze-thaw cycles” value is -2.59%. Further, in data set [2] (low QC level), the “RE, -80°C for 1 month” value is recorded as -7.39%; the “RE, Room temperature for 12 h” value is on record as 5.64%; the “RE, Three freeze-thaw cycles” value is -8.95%. For the same compound, in data set [2] (middle QC level), the “RE, -80°C for 1 month” value was -6.00%; the “RE, Room temperature for 12 h” value was 10.67%; the “RE, Three freeze-thaw cycles” value is recorded as -4.45%. The “absorption into hippocampus and cortex (qualitative)” value in data set [3] was “absorbed into the hippocampus and cortex”.
`C[C@@H]1O[C@@H](OC[C@H]2O[C@@H](Oc3cc(O)c4c(c3)O[C@H](c3ccc(O)cc3)CC4=O)[C@H](O)[C@@H](O)[C@@H]2O)[C@H](O)[C@H](O)[C@H]1O` [Narirutin, narirutin]: in data set [1] (setting [5]), the AUC is 44.9 ± 9.99 ng·h/mL, the AUC(0-t) worked out at 42.6 ± 9.64 ng·h/mL, the Cmax came out at 31.1 ± 8.83 ng/mL and the time to peak (Tmax) stood at 0.33 ± 0.13 h. In data set [1] (setting [5]), this compound gave a half-life of 1.49 ± 0.42 h. In data set [2] (high QC level), the “RE, -80°C for 1 month” value was 3.03%; the “RE, Room temperature for 12 h” value was 5.53%; the “RE, Three freeze-thaw cycles” value is 7.94%. In data set [2] (low QC level), the “RE, -80°C for 1 month” value amounted to 8.49%; the “RE, Room temperature for 12 h” value is 12.43%; the “RE, Three freeze-thaw cycles” value amounted to 9.69%. Further, in data set [2] (middle QC level), the “RE, -80°C for 1 month” value is 7.57%; the “RE, Room temperature for 12 h” value came out at 1.84%; the “RE, Three freeze-thaw cycles” value was determined as 8.89%. In data set [3], the “absorption into hippocampus and cortex (qualitative)” value was “absorbed into the hippocampus and cortex”.
For the compound `COc1ccc([C@@H]2CC(=O)c3c(O)cc(O[C@@H]4O[C@H](CO)[C@@H](O)[C@H](O)[C@H]4O[C@@H]4O[C@@H](C)[C@H](O)[C@@H](O)[C@H]4O)cc3O2)cc1O` [Neohesperidin, neohesperidin], the “AUC0-∞ in healthy rats compared with this study” value in data set [4] is given as “higher than the data obtained in our experiment”. Further, in data set [1] (setting [5]), the AUC was 239 ± 95.6 ng·h/mL, the exposure AUC(0-t) worked out at 234 ± 87.3 ng·h/mL, the peak level (Cmax) was 90.8 ± 48.5 ng/mL and the Tmax came to 0.29 ± 0.1 h. Also, the half-life in data set [1] (setting [5]) is 2.02 ± 0.77 h. Moreover, in data set [2] (high QC level), the “RE, -80°C for 1 month” value was determined as 2.03%; the “RE, Room temperature for 12 h” value is 10.82%; the “RE, Three freeze-thaw cycles” value is -0.30%. Besides, in data set [2] (low QC level), the “RE, -80°C for 1 month” value is 3.31%; the “RE, Room temperature for 12 h” value is given as -5.80%; the “RE, Three freeze-thaw cycles” value was found to be 7.23%. Besides, in data set [2] (middle QC level), the “RE, -80°C for 1 month” value is on record as 3.13%; the “RE, Room temperature for 12 h” value is 7.28%; the “RE, Three freeze-thaw cycles” value is given as 5.88%. The “absorption into hippocampus and cortex (qualitative)” value in data set [3] is “absorbed into the hippocampus and cortex”.
As to `COc1ccc(-c2cc(=O)c3c(OC)c(OC)c(OC)c(OC)c3o2)cc1OC` [Nobiletin, nobiletin], in data set [1] (setting [5]), the AUC was 153 ± 40 ng·h/mL, the AUC(0-t) was 151 ± 40.6 ng·h/mL, the concentration peaked (Cmax) at 53.9 ± 14.3 ng/mL and the Tmax came out at 0.38 ± 0.14 h. Moreover, the half-life in data set [1] (setting [5]) was 1.28 ± 0.87 h. For the same compound, in data set [2] (high QC level), the “RE, -80°C for 1 month” value is -1.14%; the “RE, Room temperature for 12 h” value amounted to 4.48%; the “RE, Three freeze-thaw cycles” value is -6.73%. Besides, in data set [2] (low QC level), the “RE, -80°C for 1 month” value is reported as -9.94%; the “RE, Room temperature for 12 h” value is reported as -4.37%; the “RE, Three freeze-thaw cycles” value was -7.88%. In addition, in data set [2] (middle QC level), the “RE, -80°C for 1 month” value is reported as -8.19%; the “RE, Room temperature for 12 h” value was determined as 5.03%; the “RE, Three freeze-thaw cycles” value is given as -7.62%. In addition, the “absorption into hippocampus and cortex (qualitative)” value in data set [3] is “absorbed into the hippocampus and cortex”.
Take `C[C@@H]1O[C@@H](O[C@H]2[C@H](Oc3cc(O)c4c(c3)O[C@H](c3ccc(O)cc3)CC4=O)O[C@H](CO)[C@@H](O)[C@@H]2O)[C@H](O)[C@H](O)[C@H]1O` [Naringin, naringin]: the “AUC0-∞ in healthy rats compared with this study” value in data set [4] is “higher than the data obtained in our experiment”. Also, in data set [1] (setting [5]), the AUC was 312 ± 89.5 ng·h/mL, the AUC(0-t) stood at 293 ± 92 ng·h/mL, the peak level (Cmax) was 104 ± 18.8 ng/mL and the time to peak (Tmax) amounted to 0.42 ± 0.13 h. In addition, in data set [1] (setting [5]), the half-life is 1.67 ± 0.57 h. Moreover, in data set [2] (high QC level), the “RE, -80°C for 1 month” value stood at 4.57%; the “RE, Room temperature for 12 h” value stood at 5.94%; the “RE, Three freeze-thaw cycles” value was 0.56%. Further, in data set [2] (low QC level), the “RE, -80°C for 1 month” value is recorded as 12.29%; the “RE, Room temperature for 12 h” value was determined as 5.84%; the “RE, Three freeze-thaw cycles” value turned out to be 9.33%. Further, in data set [2] (middle QC level), the “RE, -80°C for 1 month” value is reported as 0.21%; the “RE, Room temperature for 12 h” value worked out at 6.83%; the “RE, Three freeze-thaw cycles” value came out at 4.34%. Further, the “absorption into hippocampus and cortex (qualitative)” value in data set [3] is “absorbed into the hippocampus and cortex”.
Turning to `COc1ccc([C@@H]2CC(=O)c3c(O)cc(O[C@@H]4O[C@H](CO[C@@H]5O[C@@H](C)[C@H](O)[C@@H](O)[C@H]5O)[C@@H](O)[C@H](O)[C@H]4O)cc3O2)cc1O` [Hesperidin, hesperidin], in data set [1] (setting [5]), the exposure (AUC) came to 179 ± 43.9 ng·h/mL, the exposure AUC(0-t) is 136 ± 23.7 ng·h/mL, the Cmax came out at 46 ± 7.32 ng/mL and the Tmax worked out at 0.42 ± 0.13 h. The compound also had a half-life in data set [1] (setting [5]) of 2.93 ± 0.88 h. In data set [2] (high QC level), the “RE, -80°C for 1 month” value is reported as 0.02%; the “RE, Room temperature for 12 h” value is reported as 4.88%; the “RE, Three freeze-thaw cycles” value was -1.62%. Moreover, in data set [2] (low QC level), the “RE, -80°C for 1 month” value came out at 6.36%; the “RE, Room temperature for 12 h” value was -1.88%; the “RE, Three freeze-thaw cycles” value was 4.08%. Besides, in data set [2] (middle QC level), the “RE, -80°C for 1 month” value is 4.15%; the “RE, Room temperature for 12 h” value is 0.91%; the “RE, Three freeze-thaw cycles” value was 5.80%. Moreover, the “absorption into hippocampus and cortex (qualitative)” value in data set [3] was “absorbed into the hippocampus and cortex”.
